Among the data in patent publication US4065460A, “4,5,6,7-Tetrahydro-thieno[3,2-c]-pyridine derivatives and process for their preparation” (Parcor, priority 1975, dated 1977) are LD50 and inhibition in vivo values, retold here.

SMILES strings stand for the structures. Where two headings read alike, the source gives them in different places.

A short description of data set [1]: Acute intravenous toxicity (LD50, method according to MILLER and TAINTER). The settings on record: mouse, in vivo, Swiss mice, read-out: LD50 /24hrs/kg of the animal.
Data set [2] concerns carrageenin-induced edema. The data set is described as follows: Localized carrageenin-induced edema method (anti-inflammatory action). The class given is in vivo. The conditions noted are these: Rattus norvegicus, po, rats, 100 mg/kg orally (1 hour prior, simultaneously, 1 hour and 2.5 hours after). As for the experimental part: a. Localized carrageenin-induced edema method.
0.1 ml of a 1% carrageenin solution is injected at time 0 in the metatarsal flexor muscles of the right hind limb of rats. The animals of the treated group are administered orally, additionally, 100 mg/kg of the test derivative, respectively 1 hour prior to and then simultaneously with the phlogogenic agent, and then 1 hour and 2.5 hours thereafter. The determinations effected with a ROCH micrometer at times 0, 1 hour, 2 hrs, 3 hrs and 5 hrs after carrageenin administration make it possible to determine, as a function of time, the percent anti-inflammatory activity.

In data set [3] the test system is Ovalbumin-induced systemic edema. The experiment in a line: Ovalbumin-induced systemic edema method (anti-inflammatory action). The class given is in vivo. The conditions noted are these: Rattus norvegicus, po, rats, 100 mg/kg orally (1 hour prior and simultaneously), with respect to control group. The procedure: b. Ovalbumin-induced systemic edema method
Rats are administered a simultaneous intraperitoneal injection of 1 ml ovalbumin and 0.5 ml of a 1% Evans Blue solution. The animals of the treated group are additionally administered orally 100 mg/kg of the test derivative, one hour prior to ovalbumin administration and then simultaneously with said ovalbumin administration. The intensity of the phenomenon thus induced is rated according to a scale from 1 to 5, according to the progress of the inflammatory syndrome. The measurements are effected after 2 hours and after 3 hours. Thus are determined the mean intensity of the edema and the percent decrease of the edema reaction with respect to the control group.

Data set [4] relates to mechanical stimulation (pressure forceps at the base of the tail). The data set is described as follows: Antalgic action, mechanical stimulation method according to Haffner. It counts as in vivo. The settings on record: mouse, 100 mg/kg oral. The procedure: This method comprises placing a pressure forceps at the base of the tail of a mouse and recording the number of bites self-inflicted by the animal in its endeavour to remove the forceps. The decrease of the number of bites prior to and subsequently to oral administration of the test compound at a dosage of 100 mg/kg provides a measure of the antalgic activity of the derivatives of this invention.

Where [5] appears, read: after 1 hour, read-out: Percent anti-inflammatory activity after 1 hour.
Where [6] appears, read: after 2 hours, read-out: Percent anti-inflammatory activity after 2 hours.
The mark [7] stands for this setting: after 5 hours, read-out: Percent anti-inflammatory activity after 5 hours.
[8] abbreviates: after 2 hrs, read-out: Percent decrease of the edema reaction after 2 hrs.
The mark [9] stands for this setting: after 3 hrs, read-out: Percent decrease of the edema reaction after 3 hrs.
[10] abbreviates: 0.5 h, after 30 min., read-out: mean percent antalgia after 30 min.
[11] abbreviates: after 1 hr, read-out: mean percent antalgia after 1 hr.
Setting [12] is: after 2 hrs, read-out: mean percent antalgia after 2 hrs.
Where [13] appears, read: after 3 hrs, read-out: mean percent antalgia after 3 hrs.

For the molecule `COC1CNCc2ccsc21` (stereo not shown) [Derivative 1, 7-Methoxy-4,5,6,7-tetrahydro-thieno[3,2-c]-pyridine], in data set [1], the LD50 at 24 h was 262 mg/kg. In addition, the inhibition in vivo at 100 mg/kg in data set [2] (setting [5]) is 35%; in data set [2] (setting [6]), 41%; in data set [2] (setting [7]) it was 50%; in data set [3] (setting [8]) it was 51%; in data set [3] (setting [9]), 60%; in data set [4] (setting [10]), 75%. In addition, the inhibition in vivo at 100 mg/kg in data set [4] (setting [11]) turned out to be 63%; in data set [4] (setting [12]) it was 59%; in data set [4] (setting [13]) it was 51%.
Regarding `CCOC1CNCc2ccsc21` (stereo not shown) [Derivative 2, 7-Ethoxy-4,5,6,7-tetrahydro-thieno[3,2-c]-pyridine], in data set [1], the LD50 at 24 h is 145 mg/kg. Further, the inhibition in vivo at 100 mg/kg in data set [2] (setting [5]) stood at 36%; in data set [2] (setting [6]), 44%; in data set [2] (setting [7]), 52%; in data set [3] (setting [8]), 48%; in data set [3] (setting [9]), 59%; in data set [4] (setting [10]), 71%. In addition, the values for the inhibition in vivo at 100 mg/kg in data set [4] (setting [11]), in data set [4] (setting [12]) and in data set [4] (setting [13]) were 66%, 62% and 59%, respectively.
On to `CC(C)COC1CNCc2ccsc21` (stereo not shown) [Derivative 3, 7-Isobutoxy-4,5,6,7-tetrahydro-thieno[3,2-c]-pyridine], for which, in data set [1], the LD50 at 24 h was determined as 180 mg/kg. Besides, the inhibition in vivo at 100 mg/kg in data set [2] (setting [5]) is 39%; in data set [2] (setting [6]), 48%; in data set [2] (setting [7]), 58%; in data set [3] (setting [8]), 51%; in data set [3] (setting [9]), 63%; in data set [4] (setting [10]), 68%. The inhibition in vivo at 100 mg/kg was 60% in data set [4] (setting [11]), 55% in data set [4] (setting [12]) and 48% in data set [4] (setting [13]).
On to `c1ccc(COC2CNCc3ccsc32)cc1` (stereo not shown) [Derivative 4, 7-Benzyloxy-4,5,6,7-tetrahydro-thieno[3,2-c]-pyridine], for which the LD50 at 24 h in data set [1] was 95 mg/kg. In addition, the inhibition in vivo at 100 mg/kg in data set [2] (setting [5]) turned out to be 42%; in data set [2] (setting [6]), 50%; in data set [2] (setting [7]), 60%; in data set [3] (setting [8]), 53%; in data set [3] (setting [9]), 64%; in data set [4] (setting [10]) it was 75%. Also, the inhibition in vivo at 100 mg/kg in data set [4] (setting [11]) was 69%; in data set [4] (setting [12]), 66%; in data set [4] (setting [13]) it was 57%.
Regarding `COC1(C)CNCc2ccsc21` (stereo not shown) [Derivative 5, 7-Methoxy-7-methyl-4,5,6,7-tetrahydro-thieno[3,2-c]-pyridine], in data set [1], the LD50 at 24 h came out at 138 mg/kg. Besides, the inhibition in vivo at 100 mg/kg in data set [2] (setting [5]) was 39%; in data set [2] (setting [6]), 49%; in data set [2] (setting [7]) it was 57%; in data set [3] (setting [8]), 49%; in data set [3] (setting [9]), 60%; in data set [4] (setting [10]), 67%. Also, the inhibition in vivo at 100 mg/kg in data set [4] (setting [11]) came out at 61%; in data set [4] (setting [12]) it was 55%; in data set [4] (setting [13]), 46%.
For `CCOC1(C)CNCc2ccsc21` (stereo not shown) [Derivative 6, 7-Ethoxy-7-methyl-4,5,6,7-tetrahydro-thieno[3,2-c]-pyridine], the LD50 at 24 h in data set [1] is 224 mg/kg. Further, the inhibition in vivo at 100 mg/kg in data set [2] (setting [5]) was found to be 40%; in data set [2] (setting [6]), 49%; in data set [2] (setting [7]) it was 61%; in data set [3] (setting [8]) it was 44%; in data set [3] (setting [9]), 58%; in data set [4] (setting [10]), 66%. For the same molecule, the values for the inhibition in vivo at 100 mg/kg in data set [4] (setting [11]), in data set [4] (setting [12]) and in data set [4] (setting [13]) were 60%, 55% and 48%, respectively.
On to `COC1c2sccc2CNC1C` (stereo not shown) [Derivative 7, 7-Methoxy-6-methyl-4,5,6,7-tetrahydro-thieno[3,2-c]-pyridine], for which the LD50 at 24 h in data set [1] was found to be 210 mg/kg. Also, the inhibition in vivo at 100 mg/kg was determined as 36% in data set [2] (setting [5]); 48% in data set [2] (setting [6]); 62% in data set [2] (setting [7]); 47% in data set [3] (setting [8]); 58% in data set [3] (setting [9]); 70% in data set [4] (setting [10]). Besides, the inhibition in vivo at 100 mg/kg in data set [4] (setting [11]) amounted to 65%; in data set [4] (setting [12]), 61%; in data set [4] (setting [13]), 53%.
As to `CCOC1c2sccc2CNC1C` (stereo not shown) [Derivative 8, 7-Ethoxy-6-methyl-4,5,6,7-tetrahydro-thieno[3,2-c]-pyridine], the LD50 at 24 h in data set [1] came to 129 mg/kg. Further, the inhibition in vivo at 100 mg/kg in data set [2] (setting [5]) came to 38%; in data set [2] (setting [6]) it was 53%; in data set [2] (setting [7]), 61%; in data set [3] (setting [8]) it was 44%; in data set [3] (setting [9]), 56%; in data set [4] (setting [10]), 71%. Also, the inhibition in vivo at 100 mg/kg in data set [4] (setting [11]) came out at 65%; in data set [4] (setting [12]), 59%; in data set [4] (setting [13]), 50%.
Take `COC1(C)c2sccc2CNC1C` (stereo not shown) [Derivative 9, 6,7-Dimethyl-7-methoxy-4,5,6,7-tetrahydro-thieno[3,2-c]-pyridine]: the LD50 at 24 h in data set [1] stood at 175 mg/kg. The inhibition in vivo at 100 mg/kg was found to be 44% in data set [2] (setting [5]); 52% in data set [2] (setting [6]); 62% in data set [2] (setting [7]); 50% in data set [3] (setting [8]); 63% in data set [3] (setting [9]); 68% in data set [4] (setting [10]). Further, the inhibition in vivo at 100 mg/kg came out at 63% in data set [4] (setting [11]), 56% in data set [4] (setting [12]) and 49% in data set [4] (setting [13]).
For `COC1c2sccc2CNC1c1ccccc1` (stereo not shown) [Derivative 10, 7-Methoxy-6-phenyl-4,5,6,7-tetrahydro-thieno[3,2-c]-pyridine], in data set [1], the LD50 at 24 h is 195 mg/kg. The inhibition in vivo at 100 mg/kg in data set [2] (setting [5]) was 37%; in data set [2] (setting [6]), 50%; in data set [2] (setting [7]), 56%; in data set [3] (setting [8]) it was 48%; in data set [3] (setting [9]), 57%; in data set [4] (setting [10]), 73%. In addition, the inhibition in vivo at 100 mg/kg in data set [4] (setting [11]) worked out at 66%; in data set [4] (setting [12]), 60%; in data set [4] (setting [13]) it was 53%.
